Experiments:
corn [1] = test: Test C preemergence; assay type: in vivo, Zea mays; details: for Corn plant response rating: preemergence, 0 to 100 scale (0 no effect, 100 complete control)
Outline: (§1)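 Visual injury ratings on a 0–100 scale (100 = complete control) were made against untreated controls 10 days after treatment in the greenhouse. Compounds, formulated with surfactant in non-phytotoxic solvent, were sprayed on soil preemergence or onto one- to two-leaf plants 2–10 cm tall postemergence.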

soybean [2] = test: Test C postemergence; assay type: in vivo, Glycine max; details: 10 days
Outline: as §1

horseweed = test: Test C postemergence; assay type: in vivo, Erigeron canadensis; details: 10 days
Outline: as §1

oat, wild = test: Test C postemergence; assay type: in vivo, Avena fatua; details: 10 days
Outline: as §1

kochia [3] = test: Test C postemergence; assay type: in vivo, Bassia scoparia; details: 10 days
Outline: as §1

blackgrass [4] = test: Test C preemergence; assay type: in vivo, Alopecurus myosuroides; details: for Blackgrass plant response rating: preemergence, 0 to 100 scale (0 no effect, 100 complete control)
Outline: as §1

kochia [5] = test: Test C preemergence; assay type: in vivo, Bassia scoparia; details: for Kochia plant response rating: preemergence, 0 to 100 scale (0 no effect, 100 complete control)
Outline: as §1

barnyardgrass [6] = test: Test C preemergence; assay type: in vivo, Echinochloa crusgalli; details: for Barnyardgrass plant response rating: preemergence, 0 to 100 scale (0 no effect, 100 complete control)
Outline: as §1

ducksalad = test: Test D flooded paddy test; assay type: in vivo, Heteranthera limosa; details: 250 g ai/ha, applied to paddy water, visual rating after 13 to 14 days, scale 0 to 100 (0 no effect, 100 complete control)
Outline: (§2)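 Compounds go straight into paddy water over 2-leaf plants in pots flooded to 3 cm. Greenhouse holding lasts 13 to 14 days. Injury is scored by eye against controls from 0 (none) to 100 (complete control).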

galium = test: Test C postemergence; assay type: in vivo, Galium aparine; details: 10 days
Outline: as §1

green foxtail [7] = test: Test C postemergence; assay type: in vivo, Setaria viridis; details: 10 days
Outline: as §1

soybean [8] = test: Test C preemergence; assay type: in vivo, Glycine max; details: for Soybean plant response rating: preemergence, 0 to 100 scale (0 no effect, 100 complete control)
Outline: as §1

corn [9] = test: Test C postemergence; assay type: in vivo, Zea mays; details: 10 days
Outline: as §1

green foxtail [10] = test: Test C preemergence; assay type: in vivo, Setaria viridis; details: for Foxtail, Green plant response rating: preemergence, 0 to 100 scale (0 no effect, 100 complete control)
Outline: as §1

ragweed [11] = test: Test C preemergence; assay type: in vivo, Ambrosia artemisiifolia; details: for Ragweed plant response rating: preemergence, 0 to 100 scale (0 no effect, 100 complete control)
Outline: as §1

ryegrass, Italian [12] = test: Test C preemergence; assay type: in vivo, Lolium multiflorum; details: for Ryegrass, Italian plant response rating: preemergence, 0 to 100 scale (0 no effect, 100 complete control)
Outline: as §1

sedge, umbrella = test: Test D flooded paddy test; assay type: in vivo, Cyperus difformis; details: 250 g ai/ha, applied to paddy water, visual rating after 13 to 14 days, scale 0 to 100 (0 no effect, 100 complete control)
Outline: as §2

pigweed, palmer [13] = test: Test C postemergence; assay type: in vivo, Amaranthus palmeri; details: 10 days
Outline: as §1

wheat [14] = test: Test C preemergence; assay type: in vivo, Triticum aestivum; details: for Wheat plant response rating: preemergence, 0 to 100 scale (0 no effect, 100 complete control)
Outline: as §1

ryegrass, Italian [15] = test: Test C postemergence; assay type: in vivo, Lolium multiflorum; details: 10 days
Outline: as §1

rice = test: Test D flooded paddy test; assay type: in vivo, Oryza sativa; details: 250 g ai/ha, applied to paddy water, visual rating after 13 to 14 days, scale 0 to 100 (0 no effect, 100 complete control)
Outline: as §2

pigweed, palmer [16] = test: Test C preemergence; assay type: in vivo, Amaranthus palmeri; details: for Pigweed, Palmer plant response rating: preemergence, 0 to 100 scale (0 no effect, 100 complete control)
Outline: as §1

barnyardgrass [17] = test: Test C postemergence; assay type: in vivo, Echinochloa crusgalli; details: 10 days
Outline: as §1

blackgrass [18] = test: Test C postemergence; assay type: in vivo, Alopecurus myosuroides; details: 10 days
Outline: as §1

wheat [19] = test: Test C postemergence; assay type: in vivo, Triticum aestivum; details: 10 days
Outline: as §1

barnyardgrass [20] = test: Test D flooded paddy test; assay type: in vivo, Echinochloa crus-galli; details: 250 g ai/ha, applied to paddy water, visual rating after 13 to 14 days, scale 0 to 100 (0 no effect, 100 complete control)
Outline: as §2

ragweed [21] = test: Test C postemergence; assay type: in vivo, Ambrosia artemisiifolia; details: 10 days
Outline: as §1

[22] = 125 g ai/ha, postemergence, 0 to 100 scale, 0 no effect, 100 complete control
[23] = 500 g ai/ha, postemergence, 0 to 100 scale (0 no effect, 100 complete control)
[24] = Preemergence, 125 g ai/ha, 0 to 100 scale, 0 no effect, 100 complete control
[25] = Postemergence, 125 g ai/ha, 0 to 100 scale (0 no effect, 100 complete control)

CCOCc1ncn(-c2ccc(C)c(C(=O)N3C[C@H](C)Oc4c(Cl)cccc43)c2)n1 [Compound 294]
0: Plant response rating, Ducksalad (Flood) (ducksalad) | Ragweed plant response rating (ragweed [11]; 500 g ai/ha) | Ragweed plant response rating (ragweed [11]; Test C, 125 g ai/ha) | Plant response rating, Sedge, Umbrella (Flood) (sedge, umbrella) | Wheat plant response rating (wheat [14]; Test C, 125 g ai/ha) | Plant response rating, Rice (Flood) (rice) | Plant response rating, Barnyardgrass (Flood) (barnyardgrass [20])
20: Kochia plant response rating (kochia [5]; Test C, 125 g ai/ha) | Soybean plant response rating (soybean [8]; Test C, 125 g ai/ha) | Wheat plant response rating (wheat [14]; 500 g ai/ha)
90: Plant response rating, Soybean (soybean [2]; [22]) | Blackgrass plant response rating (blackgrass [4]; 500 g ai/ha) | Plant response rating, Galium (galium; [23]) | Soybean plant response rating (soybean [8]; 500 g ai/ha) | Plant response rating, Corn (corn [9]; [23]) | Foxtail, Green plant response rating (green foxtail [10]; Test C, 125 g ai/ha) | Ryegrass, Italian plant response rating (ryegrass, Italian [12]; Test C, 125 g ai/ha) | Plant response rating, Ryegrass, Italian (ryegrass, Italian [15]; [23]) | Pigweed, Palmer plant response rating (pigweed, palmer [16]; 500 g ai/ha)
70: Plant response rating, Horseweed (horseweed; [23]) | Blackgrass plant response rating (blackgrass [4]; Test C, 125 g ai/ha) | Plant response rating, Foxtail, Green (green foxtail [7]; [23]) | Plant response rating, Ragweed (ragweed [21]; [23])
30: Plant response rating, Horseweed (horseweed; [22]) | Plant response rating, Corn (corn [9]; [22]) | Plant response rating, Blackgrass (blackgrass [18]; [22])
10: Plant response rating, Oat, Wild (oat, wild; [22]) | Plant response rating, Oat, Wild (oat, wild; [23]) | Plant response rating, Foxtail, Green (green foxtail [7]; [22]) | Plant response rating, Barnyardgrass (barnyardgrass [17]; [22]) | Plant response rating, Wheat (wheat [19]; [22])
50: Corn plant response rating (corn [1]; 500 g ai/ha) | Corn plant response rating (corn [1]; Test C, 125 g ai/ha) | Plant response rating, Barnyardgrass (barnyardgrass [17]; [23]) | Plant response rating, Ragweed (ragweed [21]; [22])
100: Plant response rating, Soybean (soybean [2]; [23]) | Barnyardgrass plant response rating (barnyardgrass [6]; 500 g ai/ha) | Plant response rating, Galium (galium; [22]) | Foxtail, Green plant response rating (green foxtail [10]; 500 g ai/ha) | Ryegrass, Italian plant response rating (ryegrass, Italian [12]; 500 g ai/ha)
40: Barnyardgrass plant response rating (barnyardgrass [6]; Test C, 125 g ai/ha) | Plant response rating, Pigweed, Palmer (pigweed, palmer [13]; [22]) | Plant response rating, Ryegrass, Italian (ryegrass, Italian [15]; [22]) | Plant response rating, Wheat (wheat [19]; [23])
80: Kochia plant response rating (kochia [5]; 500 g ai/ha) | Plant response rating, Blackgrass (blackgrass [18]; [23])
60: Plant response rating, Kochia (kochia [3]; [22]) | Plant response rating, Kochia (kochia [3]; [23]) | Plant response rating, Pigweed, Palmer (pigweed, palmer [13]; [23]) | Pigweed, Palmer plant response rating (pigweed, palmer [16]; Test C, 125 g ai/ha)

C[C@H]1CN(C(=O)c2cccc(-n3cnc(OS(C)(=O)=O)n3)c2)c2cccc(Cl)c2O1 [Compound 356]
100: Plant response rating, Soybean (soybean [2]; [23]) | Plant response rating, Soybean (soybean [2]; [25]) | Plant response rating, Galium (galium; [23]) | Pigweed, Palmer plant response rating (pigweed, palmer [16]; 500 g ai/ha)
50: Plant response rating, Kochia (kochia [3]; [25]) | Barnyardgrass plant response rating (barnyardgrass [6]; 500 g ai/ha) | Plant response rating, Blackgrass (blackgrass [18]; [23])
90: Kochia plant response rating (kochia [5]; 500 g ai/ha) | Plant response rating, Galium (galium; [25]) | Foxtail, Green plant response rating (green foxtail [10]; 500 g ai/ha)
40: Plant response rating, Horseweed (horseweed; [23]) | Plant response rating, Pigweed, Palmer (pigweed, palmer [13]; [25]) | Plant response rating, Pigweed, Palmer (pigweed, palmer [16]; [24])
10: Corn plant response rating (corn [1]; 500 g ai/ha) | Plant response rating, Oat, Wild (oat, wild; [25]) | Plant response rating, Barnyardgrass (barnyardgrass [6]; [24]) | Plant response rating, Foxtail, Green (green foxtail [7]; [25]) | Plant response rating, Corn (corn [9]; [25]) | Plant response rating, Barnyardgrass (barnyardgrass [17]; [25]) | Plant response rating, Wheat (wheat [19]; [25])
70: Plant response rating, Ryegrass, Italian (ryegrass, Italian [12]; [24]) | Plant response rating, Pigweed, Palmer (pigweed, palmer [13]; [23])
0: Plant response rating, Corn (corn [1]; [24]) | Plant response rating, Blackgrass (blackgrass [4]; [24]) | Plant response rating, Kochia (kochia [5]; [24]) | Plant response rating, Ducksalad (Flood) (ducksalad) | Soybean plant response rating (soybean [8]; 500 g ai/ha) | Plant response rating, Soybean (soybean [8]; [24]) | Ragweed plant response rating (ragweed [11]; 500 g ai/ha) | Plant response rating, Ragweed (ragweed [11]; [24]) | Plant response rating, Sedge, Umbrella (Flood) (sedge, umbrella) | Wheat plant response rating (wheat [14]; 500 g ai/ha) | Plant response rating, Wheat (wheat [14]; [24]) | Plant response rating, Rice (Flood) (rice) | Plant response rating, Blackgrass (blackgrass [18]; [25]) | Plant response rating, Barnyardgrass (Flood) (barnyardgrass [20])
80: Plant response rating, Kochia (kochia [3]; [23]) | Ryegrass, Italian plant response rating (ryegrass, Italian [12]; 500 g ai/ha) | Plant response rating, Ryegrass, Italian (ryegrass, Italian [15]; [23])
30: Plant response rating, Horseweed (horseweed; [25]) | Plant response rating, Foxtail, Green (green foxtail [7]; [23]) | Plant response rating, Foxtail, Green (green foxtail [10]; [24]) | Plant response rating, Ryegrass, Italian (ryegrass, Italian [15]; [25]) | Plant response rating, Ragweed (ragweed [21]; [23])
20: Plant response rating, Oat, Wild (oat, wild; [23]) | Blackgrass plant response rating (blackgrass [4]; 500 g ai/ha) | Plant response rating, Corn (corn [9]; [23]) | Plant response rating, Barnyardgrass (barnyardgrass [17]; [23]) | Plant response rating, Wheat (wheat [19]; [23]) | Plant response rating, Ragweed (ragweed [21]; [25])

— patent publication US20260262643A1, “HERBICIDAL BENZOXAZINES” (FMC CORPORATION, priority 2022, published 2026)
